Measurements published in PubChem BioAssay (NCI).
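The compound was tested at five concentrations on cells cultured in 96-well plates, with a 48-hour exposure period. The concentration for 50% growth inhibition is given as GI50. The concentration for full growth arrest is given as TGI.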

Tests used:
Assay in all cases: inhibition of tumour cell growth, NCI panel, 48 h
[1] = system: 786-0 renal
[2] = system: A498 renal
[3] = system: A549 NSCLC
[4] = system: ACHN renal
[5] = system: BT-549 breast
[6] = system: CAKI-1 renal
[7] = system: CCRF-CEM leukemia
[8] = system: COLO 205 colon
[9] = system: DU-145 prostate
[10] = system: EKVX NSCLC
[11] = system: HCC-2998 colon
[12] = system: HCT-116 colon
[13] = system: HCT-15 colon
[14] = system: HL-60(TB) leukemia
[15] = system: HOP-62 NSCLC
[16] = system: HS 578T breast
[17] = system: HT29 colon
[18] = system: IGROV1 ovarian
[19] = system: K-562 leukemia
[20] = system: KM12 colon
[21] = system: LOX IMVI melanoma
[22] = system: M14 melanoma
[23] = system: MALME-3M melanoma
[24] = system: MCF7 breast
[25] = system: MDA-MB-231 breast
[26] = system: MDA-MB-435
[27] = system: MDA-MB-468 breast
[28] = system: MOLT-4 leukemia
[29] = system: NCI-H226 lung
[30] = system: NCI-H23 lung
[31] = system: NCI-H460 lung
[32] = system: NCI-H522 lung
[33] = system: NCI/ADR-RES ovarian
[34] = system: OVCAR-3 ovarian
[35] = system: OVCAR-4 ovarian
[36] = system: OVCAR-5 ovarian
[37] = system: OVCAR-8 ovarian
[38] = system: PC-3 prostate
[39] = system: RPMI-8226 leukemia
[40] = system: RXF 393 renal
[41] = system: SF-268 CNS
[42] = system: SF-295 CNS
[43] = system: SF-539 CNS
[44] = system: SK-MEL-2 melanoma
[45] = system: SK-MEL-28 melanoma
[46] = system: SK-MEL-5 melanoma
[47] = system: SK-OV-3 ovarian
[48] = system: SN12C renal
[49] = system: SNB-19 CNS
[50] = system: SR leukemia
[51] = system: SW-620 colon
[52] = system: TK-10 renal
[53] = system: U251 CNS
[54] = system: UACC-257 melanoma
[55] = system: UACC-62 melanoma
[56] = system: UO-31 renal
[57] = system: HOP-92 NSCLC
[58] = system: SNB-75 CNS
[59] = system: T-47D breast

## COc1cc(OC)cc(-c2cc3ccc(N(C)C)cc3c(=O)[nH]2)c1
[1]
  GI50: 0.0451 µM
  TGI: > 63.3 µM
[2]
  GI50: > 100 µM
  TGI: > 100 µM
[3]
  GI50: 0.039 µM
  TGI: > 100 µM
[4]
  GI50: 0.0522 µM
  TGI: > 100 µM
[5]
  GI50: 0.038 µM
  TGI: > 100 µM
[6]
  GI50: 0.0145 µM
  TGI: > 100 µM
[7]
  GI50: 0.0396 µM
  TGI: > 100 µM
[8]
  GI50: 0.0223 µM
  TGI: 0.0583 µM
[9]
  GI50: 0.0456 µM
  TGI: > 100 µM
[10]
  GI50: 0.0588 µM
  TGI: > 100 µM
[11]
  GI50: 0.0257 µM
  TGI: > 100 µM
[12]
  GI50: < 0.0135 µM
  TGI: > 100 µM
[13]
  GI50: < 0.0116 µM
[14]
  GI50: < 0.011 µM
  TGI: 0.0434 µM
[15]
  GI50: 0.038 µM
  TGI: > 100 µM
[16]
  GI50: 0.0252 µM
  TGI: > 100 µM
[17]
  GI50: 0.0164 µM
  TGI: 0.0529 µM
[18]
  GI50: 0.0446 µM
  TGI: > 100 µM
[19]
  GI50: < 0.01 µM
  TGI: > 100 µM
[20]
  GI50: 0.031 µM
  TGI: > 100 µM
[21]
  GI50: 0.019 µM
  TGI: > 100 µM
[22]
  GI50: < 0.0106 µM
  TGI: > 48.2 µM
[23]
  GI50: 0.024 µM
  TGI: > 100 µM
[24]
  GI50: 0.0331 µM
  TGI: > 100 µM
[25]
  GI50: 0.0303 µM
  TGI: 3.6 µM
[26]
  GI50: < 0.01 µM
  TGI: 0.0149 µM
[27]
  GI50: 0.0217 µM
  TGI: 0.069 µM
[28]
  GI50: 0.0254 µM
  TGI: > 100 µM
[29]
  GI50: 0.219 µM
  TGI: > 100 µM
[30]
  GI50: 0.0426 µM
  TGI: > 100 µM
[31]
  GI50: 0.0341 µM
  TGI: > 100 µM
[32]
  GI50: < 0.01 µM
  TGI: 0.0473 µM
[33]
  GI50: < 0.01 µM
  TGI: 0.0336 µM
[34]
  GI50: 0.0191 µM
  TGI: 37.8 µM
[35]
  GI50: 1.67 µM
  TGI: > 100 µM
[36]
  GI50: 0.0357 µM
  TGI: > 100 µM
[37]
  GI50: 0.0298 µM
  TGI: 0.187 µM
[38]
  GI50: 0.04 µM
  TGI: > 100 µM
[39]
  GI50: 0.0436 µM
  TGI: > 100 µM
[40]
  GI50: 0.0155 µM
  TGI: > 100 µM
[41]
  GI50: 0.354 µM
  TGI: > 100 µM
[42]
  GI50: < 0.0106 µM
[43]
  GI50: 0.0117 µM
  TGI: 0.0426 µM
[44]
  GI50: 0.0256 µM
  TGI: > 100 µM
[45]
  GI50: 0.0422 µM
  TGI: > 100 µM
[46]
  GI50: 0.0171 µM
  TGI: 0.145 µM
[47]
  GI50: 0.0335 µM
  TGI: > 100 µM
[48]
  GI50: 0.0372 µM
  TGI: > 100 µM
[49]
  GI50: 0.0542 µM
  TGI: > 100 µM
[50]
  GI50: < 0.01 µM
  TGI: > 100 µM
[51]
  GI50: < 0.0106 µM
  TGI: > 100 µM
[52]
  GI50: > 100 µM
  TGI: > 100 µM
[53]
  GI50: 0.0151 µM
  TGI: > 47 µM
[54]
  GI50: > 100 µM
  TGI: > 100 µM
[55]
  GI50: < 0.01 µM
  TGI: > 100 µM
[56]
  GI50: 0.0523 µM
  TGI: > 100 µM

## Nc1nc(Nc2ccc(Cl)cc2)n(Cc2cccc(Br)c2)n1
[1]
  GI50: 34.9 µM
  TGI: > 100 µM
[2]
  GI50: 26.7 µM
  TGI: 85.9 µM
[3]
  GI50: 32.9 µM
  TGI: > 100 µM
[4]
  GI50: 29.3 µM
  TGI: > 100 µM
[5]
  GI50: 38.8 µM
  TGI: 92 µM
[6]
  GI50: 25.9 µM
  TGI: > 100 µM
[7]
  GI50: 36.8 µM
  TGI: > 100 µM
[8]
  GI50: 37.4 µM
  TGI: > 100 µM
[9]
  GI50: 41.1 µM
  TGI: > 100 µM
[10]
  GI50: 25.2 µM
  TGI: > 100 µM
[11]
  GI50: 27 µM
  TGI: > 100 µM
[12]
  GI50: 31.3 µM
  TGI: > 100 µM
[13]
  GI50: 27 µM
  TGI: > 100 µM
[14]
  GI50: 24.6 µM
  TGI: 71.8 µM
[15]
  GI50: 49 µM
  TGI: > 100 µM
[57]
  GI50: 19.4 µM
  TGI: 63.8 µM
[16]
  GI50: 24.4 µM
  TGI: 96.3 µM
[17]
  GI50: 35.6 µM
  TGI: > 100 µM
[18]
  GI50: 30.7 µM
  TGI: > 100 µM
[19]
  GI50: 28 µM
  TGI: > 100 µM
[20]
  GI50: 33.3 µM
  TGI: > 100 µM
[21]
  GI50: 17.2 µM
  TGI: 35.9 µM
[22]
  GI50: 29.5 µM
  TGI: > 100 µM
[23]
  GI50: 21.5 µM
  TGI: 71.2 µM
[24]
  GI50: 25.1 µM
  TGI: > 100 µM
[25]
  GI50: 30.5 µM
  TGI: > 100 µM
[26]
  GI50: 19 µM
  TGI: 42.2 µM
[27]
  GI50: 16.8 µM
  TGI: 45.3 µM
[28]
  GI50: 25.6 µM
  TGI: > 100 µM
[29]
  GI50: 25.3 µM
  TGI: > 100 µM
[30]
  GI50: 29 µM
  TGI: > 100 µM
[31]
  GI50: 23.7 µM
  TGI: 57.5 µM
[32]
  GI50: 18.7 µM
  TGI: 44.5 µM
[33]
  GI50: 20.2 µM
  TGI: 51.5 µM
[34]
  GI50: 33.8 µM
  TGI: > 100 µM
[35]
  GI50: 34 µM
  TGI: > 100 µM
[36]
  GI50: 22.3 µM
  TGI: 73.5 µM
[37]
  GI50: 35.7 µM
  TGI: > 100 µM
[38]
  GI50: 29.8 µM
  TGI: > 100 µM
[39]
  GI50: 31.6 µM
  TGI: > 100 µM
[40]
  GI50: 17 µM
  TGI: 60.5 µM
[41]
  GI50: 27.9 µM
  TGI: > 100 µM
[42]
  GI50: 22.6 µM
  TGI: 74.9 µM
[43]
  GI50: 22.2 µM
  TGI: 62.1 µM
[44]
  GI50: 18.9 µM
  TGI: 38.1 µM
[45]
  GI50: 26 µM
  TGI: > 100 µM
[46]
  GI50: 17.4 µM
  TGI: 33.5 µM
[47]
  GI50: 34.5 µM
  TGI: > 100 µM
[48]
  GI50: 26.2 µM
  TGI: > 100 µM
[49]
  GI50: 30.7 µM
  TGI: > 100 µM
[58]
  GI50: 15.5 µM
  TGI: 60.6 µM
[50]
  GI50: 57.6 µM
  TGI: > 100 µM
[51]
  GI50: 32.8 µM
  TGI: > 100 µM
[59]
  GI50: 30.5 µM
  TGI: > 100 µM
[52]
  GI50: 40 µM
  TGI: > 100 µM
[53]
  GI50: 31.3 µM
  TGI: > 100 µM
[54]
  GI50: 33.6 µM
  TGI: > 100 µM
[55]
  GI50: 18.3 µM
  TGI: 61.1 µM
[56]
  GI50: 21 µM
  TGI: 90.4 µM
